# Test results reported in US8415106B2, “Cell-based screen for agents useful for reducing neuronal demyelination or promoting neuronal remyelination” (Myelin Repair Foundation, Inc., priority 2005, dated 2013).
# Legend:
# PP1-GADD34 phosphatase = settings: Boyce, et al. (2005) Science 307:935-939; cited from earlier work
# [1] = tested on: myelin basic protein (MBP); test: Hippocampal organotypic cultures (HOC), in vitro model of myelination, MBP Western blot; format: cell-based; settings: 7 days
# Procedure: HOCs, were prepared and maintained as described previously (Kunkler and Kraig (1997) J Cereb Blood Flow Metab. 17:26-43), and were maintained in vitro for 7 days before use. SAL at various concentrations was combined with 100 U/ml IFN-γ and added to the HOC cultures for 7 days. […] After 7 days of 100 U/ml IFN-γ exposure, the levels of MBP decreased approximately 80% in the HOCs (FIG. 29).
compound,measurement,setting,value
"O=C(/C=C/c1ccccc1)NC(NC(=S)Nc1cccc2cccnc12)C(Cl)(Cl)Cl (stereo not drawn) [SAL, salubrinal]",PP1-GADD34 phosphatase activity,PP1-GADD34 phosphatase,specifically inhibits the PP1-GADD34 phosphatase activity
same,reduction of MBP expression elicited by IFN-γ exposure,[1]; SAL at various concentrations combined with 100 U/ml IFN-γ,markedly attenuated
same,MBP expression,[1]; SAL treatment alone,did not affect MBP expression
